Here are results for 20 molecules from patent US20220313698A1, “MODULATORS OF CYSTIC FIBROSIS TRANSMEMBRANE CONDUCTANCE REGULATOR” (Vertex Pharmaceuticals Incorporated, priority 2019, published 2022).

Broadly, the EC50 is the midpoint of the concentration-response curve.

Where only a bound is given, the exact number is not on record here.

For the assay, the target named is CFTR-mediated chloride transport (Homo sapiens, UniProt P13569). Put plainly: Corrector Assay A - membrane potential dye assay (enteroid cells). The note with it: for Corrector Assay A % activity: % of chloride transport of triple combination control (1 μM (14S)-dispiro macrocycle + 3 μM tezacaftor + 300 nM ivacaftor); for EC50: read-out: Corrector Assay A EC50, human intestinal enteroid cells, 18-24 h incubation, acute 10 μM forskolin + 300 nM ivacaftor.

With `CN(C)Cc1ccnc([C@@H]2CC[C@@H]3CN(c4nc(C(C)(C)C)ccc4C(=O)NS(=O)(=O)c4cccc(n4)N2)C(C)(C)C3)c1` (single isomer, unassigned) [Compound 86], the “Corrector Assay A % activity” value is recorded as “++ (++ is 30-60%)” and the concentration for a half-maximal effect (EC50) is < 1000 nM. Regarding `Cn1cc(C2CC[C@@H]3CN(c4nc(C(C)(C)C)ccc4C(=O)NS(=O)(=O)c4cccc(n4)N2)C(C)(C)C3)cn1` (single isomer, unassigned) [Compound 281], the “Corrector Assay A % activity” value was “+++ (+++ is >60%)” and the concentration giving a half-maximal response (EC50) is < 1000 nM. In the case of `CC(C)(C)c1ccc2c(n1)N1C[C@@H](CCC(c3cc(CN)ccn3)Nc3cccc(n3)S(=O)(=O)NC2=O)CC1(C)C` (single isomer, unassigned) [Compound 115], the “Corrector Assay A % activity” value was “+++ (+++ is >60%)” and the EC50 was < 1000 nM.

On to `CC(C)(C)c1ccc2c(n1)N1C[C@@H](CCC(c3cc(CN)ccn3)Nc3cccc(n3)S(=O)(=O)NC2=O)CC1(C)C` (single isomer, unassigned) [Compound 116], for which the “Corrector Assay A % activity” value is “+++ (+++ is >60%)” and the EC50 is < 1000 nM. With `CC(C)(C)c1ccc2c(n1)N1C[C@@H](CCC(c3ccc(Br)cn3)Nc3cccc(n3)S(=O)(=O)NC2=O)CC1(C)C` (single isomer, unassigned) [Compound 172], the “Corrector Assay A % activity” value is on record as “+++ (+++ is >60%)” and the half-maximal effective concentration (EC50) is < 1000 nM.

In the case of `CC(C)(C)c1ccc2c(n1)N1C[C@@H](CC[C@@H](c3ncccn3)Nc3cccc(n3)S(=O)(=O)NC2=O)CC1(C)C` (single isomer, unassigned) [Compound 206], the “Corrector Assay A % activity” value was “+++ (+++ is >60%)” and the EC50 is 1000 to 3000 nM. On to `CC(C)O[C@H]1C[C@@H](Oc2ccc3c(n2)N2C[C@@H](CC[C@H](c4ccccn4)Nc4cccc(n4)S(=O)(=O)NC3=O)CC2(C)C)C1` [Compound 161, (14S,17R)-12,12-dimethyl-17-(pyridin-2-yl)-8-[(1s,3S)-3-(propan-2-yloxy)cyclobutoxy]-2λ^6-thia-3,9,11,18,23-pentaazatetracyclo[17.3.1.111,14.05,10]tetracosa-1(22),5,7,9,19(23),20-hexaene-2,2,4-trione], for which the “Corrector Assay A % activity” value is listed as “+++ (+++ is >60%)” and the EC50 is < 1000 nM. For `CC(=O)NCc1cccc([C@H]2CC[C@@H]3CN(c4nc(C(C)(C)C)ccc4C(=O)NS(=O)(=O)c4cccc(n4)N2)C(C)(C)C3)n1` [Compound 100, N-({6-[(14S,17R)-8-tert-Butyl-12,12-dimethyl-2,2,4-trioxo-2λ^6-thia-3,9,11,18,23-pentaazatetracyclo[17.3.1.111,14.05,10]tetracosa-1(22),5,7,9,19(23),20-hexaen-17-yl]pyridin-2-yl}methyl)acetamide], the “Corrector Assay A % activity” value is on record as “+++ (+++ is >60%)” and the EC50 was < 1000 nM. For the molecule `CC1(C)C[C@@H]2CC[C@H](c3ccccn3)Nc3cccc(n3)S(=O)(=O)NC(=O)c3ccc(C4=CCC(F)(F)CC4)nc3N1C2` [Compound 325, (14S,17R)-8-(4,4-Difluorocyclohex-1-en-1-yl)-12,12-dimethyl-17-(pyridin-2-yl)-2λ^6-thia-3,9,11,18,23-pentaazatetracyclo[17.3.1.111,14.05,10]tetracosa-1(22),5,7,9,19(23),20-hexaene-2,2,4-trione], the “Corrector Assay A % activity” value was “+++ (+++ is >60%)” and the 50% effective concentration (EC50) was < 1000 nM.

Regarding `CC(C)CN1c2cccc(n2)S(=O)(=O)NC(=O)c2ccc(C(C)(C)C)nc2N2C[C@@H](CC[C@H]1c1ccccc1)CC2(C)C` (single isomer, unassigned) [Compound 271], the “Corrector Assay A % activity” value is given as “+ (+ is <30%)”. Turning to `CC(C)(C)c1ccc2c(n1)N1C[C@@H](CCC(c3ccc(-c4cc[nH]n4)cn3)Nc3cccc(n3)S(=O)(=O)NC2=O)CC1(C)C` (stereo partly drawn) [Compound 130], the “Corrector Assay A % activity” value is on record as “+++ (+++ is >60%)” and the EC50 is < 1000 nM. On to `COC(=O)CCc1ccc(C2CC[C@@H]3CN(c4nc(C(C)(C)C)ccc4C(=O)NS(=O)(=O)c4cccc(n4)N2)C(C)(C)C3)nc1` (stereo partly drawn) [Compound 91, methyl 3-{6-[(14S)-8-tert-butyl-12,12-dimethyl-2,2,4-trioxo-2λ^6-thia-3,9,11,18,23-pentaazatetracyclo[17.3.1.111,14.05,10]tetracosa-1(23),5(10),6,8,19,21-hexaen-17-yl]pyridin-3-yl}propanoate], for which the “Corrector Assay A % activity” value is given as “++ (++ is 30-60%)” and the 50% effective concentration (EC50) was > 3000 nM. Consider `Cc1cccc(C)c1[C@@H]1CC[C@@H]2CN(c3nc(C(C)(C)C)ccc3C(=O)NS(=O)(=O)c3cccc(n3)N1)C(C)(C)C2` (single isomer, unassigned) [Compound 243], for which the “Corrector Assay A % activity” value is recorded as “+++ (+++ is >60%)” and the EC50 was < 1000 nM. For `Cn1nccc1C1CC[C@@H]2CN(c3nc(C(C)(C)C)ccc3C(=O)NS(=O)(=O)c3cccc(n3)N1)C(C)(C)C2` (single isomer, unassigned) [Compound 284] the same measures were “++ (++ is 30-60%)” and < 1000 nM.

As to `CC(C)(C)c1ccc2c(n1)N1C[C@@H](CC[C@H](c3cccc(N4CCOCC4)n3)Nc3cccc(n3)S(=O)(=O)NC2=O)CC1(C)C` [Compound 191], the “Corrector Assay A % activity” value was “+++ (+++ is >60%)” and the EC50 is < 1000 nM. With `CC(C)(C)c1ccc2c(n1)N1C[C@@H](CCC(C3CCNCC3)Nc3cccc(n3)S(=O)(=O)NC2=O)CC1(C)C` (single isomer, unassigned) [Compound 248], the “Corrector Assay A % activity” value was “++ (++ is 30-60%)” and the half-maximal effective concentration (EC50) was > 3000 nM. For `CN1CCN(c2ccc(C3CC[C@@H]4CN(c5nc(C(C)(C)C)ccc5C(=O)NS(=O)(=O)c5cccc(n5)N3)C(C)(C)C4)nc2)CC1` (stereo partly drawn) [Compound 201, (14S)-8-tert-butyl-12,12-dimethyl-17-[5-(4-methylpiperazin-1-yl)pyridin-2-yl]-2λ^6-thia-3,9,11,18,23-pentaazatetracyclo[17.3.1.111,14.05,10]tetracosa-1(23),5(10),6,8,19,21-hexaene-2,2,4-trione] the same measures were “+++ (+++ is >60%)” and < 1000 nM.

`CC(C)(C)c1ccnc([C@@H]2CC[C@@H]3CN(c4nc5ccccc5cc4C(=O)NS(=O)(=O)c4cccc(n4)N2)C(C)(C)C3)c1` (single isomer, unassigned) [Compound 10]: the “Corrector Assay A % activity” value is given as “++ (++ is 30-60%)” and the EC50 was < 1000 nM. On to `CC(C)(C)c1ccnc([C@H]2CC[C@@H]3CN(c4nc(-c5cccc(F)n5)ccc4C(=O)NS(=O)(=O)c4cccc(n4)N2)C(C)(C)C3)c1` [Compound 307, (14S,17R)-17-(4-tert-butylpyridin-2-yl)-8-(6-fluoropyridin-2-yl)-12,12-dimethyl-2λ^6-thia-3,9,11,18,23-pentaazatetracyclo[17.3.1.111,14.05,10]tetracosa-1(22),5,7,9,19(23),20-hexaene-2,2,4-trione], for which the “Corrector Assay A % activity” value is “+++ (+++ is >60%)” and the EC50 is < 1000 nM. For `CC(C)(C)c1ccc2c(n1)N1C[C@@H](CCC(C3CCN(C(=O)OCc4ccccc4)CC3)Nc3cccc(n3)S(=O)(=O)NC2=O)CC1(C)C` (single isomer, unassigned) [Compound 255], the “Corrector Assay A % activity” value is recorded as “+++ (+++ is >60%)” and the EC50 is < 1000 nM.
